Consider four molecules from patent US10233184B2, “7-substituted sulfonimidoylpurinone compounds and derivatives for the treatment and prophylaxis of virus infection” (Hoffmann-La Roche Inc., priority 2016, dated 2019).

Converted amounts (≈) assume the structure as drawn. Where two headings read alike, the source gives them in different places.

One data set is described as follows: LYSA solubility study. Format: physicochemical. The note with it: phosphate buffer, pH 6.5, aqueous buffer, thermodynamic from solid, 0.05M phosphate buffer pH 6.5, read-out: LYSA of Prodrugs. In outline: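 Samples from 10 mM DMSO stock were dried, redissolved in 0.05M phosphate buffer pH 6.5, stirred 1 h, shaken 2 h, left overnight and filtered. Filtrate and 1/10 dilution quantified by HPLC-UV; solubility in μg/mL, reported as greater-than when >80% of the maximum sample amount was in solution.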

Data set [1] is described as follows: Portal vein study: oral PK in PVC/CAC dual cannulated rat. It counts as in vivo. The note with it: prodrug 10 mg/kg oral, analyte prodrug. How it is done: Surgery was performed under pentobarbital/isoflurane anesthesia. Briefly, after disinfecting the abdominal area with betadine and 70% isopropyl alcohol, a small abdominal mid-line incision was made. The cecum was pulled out and mesenteric vein was identified and isolated for about 5 mm vessel. A loose ligature was placed proximally and distal end of the vein was ligated. Make a small incision (just enough to allow the insertion of the catheter) on isolated vein and insert the PU catheter towards liver for appropriate length. The catheter was secured in place by tying the loose ligature around the cannulated vessel. The cecum was replaced into abdominal cavity. A hole was made in the right abdominal wall to make the end of catheter pass freely. The catheter was secured by suture on the abdominal wall. The abdominal muscle incision was closed with suture. A small incision was made in the scapular area to serve as the exit site of the catheter. The catheter was subcutaneously tunneled and exteriorized through the scapular incision. A fixed suture was placed in the scapular region. The patency of the catheter was checked and then exteriorized from the subcutaneous space to the dorsal neck region. After gently wiping the area, the abdominal cavity was sutured. The left carotid artery was then cannulated by inserting a PESO catheter. Both the exteriorized catheters were tied firmly on the dorsal neck region and fixed. The animals was then allowed to recover in its cage and used for study at least 3 days after surgery. All catheters were flushed once daily with heparinized saline to maintain patency. Animals were fasted overnight (n=3) and administered vial oral gavage (10 mg/kg, 10 mL/kg). Blood samples (60 μL) were collected simultaneously from the portal and carotid artery catheters at 0.083, 0.25, 0.5, 1, 2, 4, 7, 24 h. All blood samples will be transferred into microcentrifuge tubes containing 2 μL of K2EDTA (0.5M) as anti-coagulant and placed on wet ice. Then blood samples will be processed for plasma by centrifugation at approximately 4° C., 3000 g within half an hour of collection. Plasma samples will be stored in polypropylene tubes, quick frozen over dry ice and kept at −70±10° C. until LC/MS/MS analysis. Pharmacokinetic parameters (mean±SD, n=3) of prodrugs and active forms in portal and carotid samples following oral administration of prodrugs (10 mg/kg) in portal vein cannulated rat were detected and analyzed.

The test system of a further data set is HBV. The experiment in a line: In vivo antiviral efficacy in AAV-HBV mouse model. On the set-up: species or system C57BL/6 mice. The note with it: for reduction in HBV DNA / reduction in HBsAg: serum. The text has this:
4-6 week old male C57BL/6 mice, specific pathogen free, were purchased from Shanghai Laboratory Animal Center of Chinese Academy of Sciences (SLAC) and housed in an animal care facility in individually ventilated cages under controlled temperature and light conditions following the Institutional Animal Care guidelines. AAV-HBV virus was purchased from Beijing FivePlus Molecular Medicine Institute (Beijing, China). The recombinant virus carries 1.3 copies of the HBV genome packaged into AAV serotype 8 (AAV8) capsids. C57BL/6 mice were injected with 200 μL of the recombinant virus diluted in saline buffer through tail vein. On day 14, the mice were bled to measure HBV surface antigen (HBsAg) and HBV genomic DNA in the serum, and animals were then randomized into groups according to these HBV biomarkers.
Serum HBsAg and HBeAg were measured using CLIA kits (Autobio Diagnostics Co., Ltd., Zhengzhou, China) according to the manufacturer's instructions. The lower limit of detection for HBsAg was 0.05 IU/mL. Serum dilution of 500-fold was used to obtain values within the linear range of the standard curve.
Serum HBV DNA was extracted using a MagNA Pure 96 DNA and Viral NA Small Volume Kit (Roche) following the manufacturer's instructions. The DNA samples were analyzed by real-time quantitative PCR (qPCR) using a HBV-specific primer and probe set for specific amplification and detection of a 128 bp HBV genome region from the nucleotide 2969 to 3096. The sequences of the primers and probe are: […]
Anti-HBs in the serum was tested using Anti-HBs CLIA kits (Autobio Diagnostics Co., Ltd., Zhengzhou, China) and mouse anti-IgG conjugated with Biotin (0.5 mg/mL) from a Mabtech B Elispot kit. The anti-IgG Biotin was diluted in PBS with a final concentration of 1 μg/mL. 25 μL of mouse anti-IgG were mixed with serum samples in wells of the plate in the Anti-HBs CLIA kit for 1-hour incubation. Then wash the plate and add Streptavidin-HRP for 1-hour incubation at room temperature. After repeating the washing step, mix substrate A and B from the CLIA kit and add 50 μL of the mixture in each well. After 5-min incubation at room temperature, the plate was read on an Envision Plate Reader (PerkinElmer) to measure luminecence.
The mouse model with high level expression of both HBV DNA and HBsAg was generated by injecting C57BL/6 mice with a recombinant adeno-associated virus (AAV) carrying a replicable HBV genome (AAV-HBV). With long-lasting HBV viremia and fully competent immune system, the AAV-HBV mouse model was utilized to evaluate the antiviral efficacy of the TLR7 agonists following the study design as shown in Table 3.
Specifically, groups 2 and 3 were orally dosed with Example 43-A at 10 mg/kg every other day (QOD) and once weekly (QW), respectively, and the control group 1 received only Vehicle. At the dosing volume of 10 mL/kg, Example 43-A (1 mg/mL) was formulated as an inclusion complex with 2% Klucel LF, 0.5% TPGS, 0.09% Methylparabens, 0.01% Propylparabens in water. The animals were treated for a total of 42 days, and were submandibularly bled twice per week for serum collection throughout the study. The serum samples were subjected to analysis of HBV biomarkers.
The antiviral efficacy of Example 41-A was evaluated in the same AAV-HBV model following the study design in Table 4 with the same methods to measure HBV biomarkers as described in Example 51.
Specifically, groups 2, 3 and 4 were orally dosed with Example 41-A at 1, 3 and 10 mg/kg QOD respectively. Group 5 was treated with 10 mg/kg QW, while group 1 with only Vehicle. At the dosing volume of 10 mL/kg, Example 41-A (0.1, 0.3, and 1 mg/mL) was formulated as an inclusion complex with 2% Klucel LF, 0.5% TPGS, 0.09% Methylparabens, 0.01% Propylparabens in water. The animals were treated for a total of 42 days, and were submandibularly bled twice per week for serum collection throughout the study. The serum samples were subjected to analysis of HBV biomarkers. […]

[2] abbreviates: carotid artery plasma, read-out: AUC0-2 (nM · h), prodrug, Carotid sampling.
The mark [3] stands for this setting: carotid artery plasma, read-out: Cmax (nM), prodrug, Carotid sampling.
Setting [4] is: carotid artery plasma, read-out: Tmax (h), prodrug, Carotid sampling.
[5] abbreviates: portal vein plasma, read-out: AUC0-2 (nM · h), prodrug, Portal sampling.
Setting [6] is: portal vein plasma, read-out: Cmax (nM), prodrug, Portal sampling.
Setting [7] is: portal vein plasma, read-out: Tmax (h), prodrug, Portal sampling.
[8] abbreviates: AAV-HBV mice, 10 mg/kg PO QW, 42 days.
Where [9] appears, read: AAV-HBV mice, 1, 3, 10 mg/kg PO QOD (all three doses).
Setting [10] is: AAV-HBV mice, 1, 3, 10 mg/kg PO QOD, 42 days.
The mark [11] stands for this setting: AAV-HBV mice, 1, 3, 10 mg/kg PO QOD, 42 days, all treated groups.
The mark [12] stands for this setting: AAV-HBV mice, 10 mg/kg PO QOD, 42 days.

In the case of `CCCN(C)C(=O)n1c(=O)n(Cc2ccc(Cl)cc2)c2nc([S@](=N)(=O)CC)nc(N)c21` [Example 41-A, 6-Amino-9-[(4-chlorophenyl)methyl]-2-[S(R)-ethylsulfonimidoyl]-N-methyl-8-oxo-N-propyl-purine-7-carboxamide], in “LYSA solubility study”, the solubility thermodynamic was 260 µg/mL (≈ 558 µM). In addition, the AUC(0-t) in data set [1] (setting [2]) stood at 0.114 µM·h; in data set [1] (setting [5]) it was 2.19 µM·h. For the same molecule, the Cmax (in general, the peak of the concentration-time curve) in data set [1] (setting [3]) came out at 210 nM; in data set [1] (setting [6]), 9700 nM. The time to peak (Tmax) – broadly, the time at which the peak concentration occurs – came to 0.19 h in data set [1] (setting [4]) and 0.14 h in data set [1] (setting [7]). Besides, the “levels of HBV DNA and HBsAg at the treatment end” value in the data set on HBV (setting [8]) is “undetectable levels”. The “levels of HBV DNA and HBsAg at the end of the 42-day treatment” value (“levels … of the 42-day treatment” for short) with HBV (setting [9]) was “below or close to the LLOQ”. The anti-HBsAg antibody level entry with HBV (AAV-HBV mice, 1, 3, 10 mg/kg PO QOD and 10 mg/kg QW, post treatment, versus Vehicle) is listed as “significantly higher levels of antibody against-HbsAg than Vehicle”. Besides, the “effect on HBV DNA and HBsAg” value in the data set with HBV (setting [10]) is “dose-dependently reduced HBV DNA and HBsAg”.
With `CCCN(C)C(=O)n1c(=O)n(Cc2ccc(Cl)cc2)c2nc([S@@](=N)(=O)CC)nc(N)c21` [Example 41-B, 6-Amino-9-[(4-chlorophenyl)methyl]-2-[S(S)-ethylsulfonimidoyl]-N-methyl-8-oxo-N-propyl-purine-7-carboxamide], the solubility thermodynamic in “LYSA solubility study” is 250 µg/mL (≈ 537 µM). Moreover, the AUC(0-t) in data set [1] (setting [2]) came to 0.0225 µM·h; in data set [1] (setting [5]), 1.44 µM·h. The Cmax was 29.6 nM in data set [1] (setting [3]) and 7070 nM in data set [1] (setting [6]). Further, the Tmax in data set [1] (setting [4]) turned out to be 0.25 h; in data set [1] (setting [7]) it was 0.19 h. Besides, the “levels … of the 42-day treatment” value with HBV (setting [9]) is reported as “below the LLOQ”. Besides, in the data set with HBV (setting [10]), the “effect on HBV DNA and HBsAg” value was “all effective to reduce HBV DNA and HBsAg”. The anti-HBsAg antibody level entry with HBV (setting [11]) was “high levels of anti-HBsAg antibody than the Vehicle group”.
In the case of `CCN(C)C(=O)n1c(=O)n(Cc2ccc(Cl)cc2)c2nc([S@@](=N)(=O)CC)nc(N)c21` [Example 42-A, 6-Amino-9-[(4-chlorophenyl)methyl]-N-ethyl-2[S(S)-ethylsulfonimidoyl]-N-methyl-8-oxo-purine-7-carboxamide], the solubility thermodynamic in “LYSA solubility study” stood at 225 µg/mL (≈ 498 µM). Further, the AUC(0-t) came out at 0.286 µM·h in data set [1] (setting [2]) and 3.46 µM·h in data set [1] (setting [5]). Moreover, the Cmax turned out to be 286 nM in data set [1] (setting [3]) and 8920 nM in data set [1] (setting [6]). In addition, the time of peak concentration (Tmax) worked out at 0.22 h in data set [1] (setting [4]) and 0.19 h in data set [1] (setting [7]). In addition, in the data set on HBV (setting [9]), the “levels … of the 42-day treatment” value was “below or close to the LLOQ”. Also, in the data set on HBV (setting [10]), the “effect on HBV DNA and HBsAg” value is “all effective to reduce HBV DNA and HBsAg”. For the same molecule, the anti-HBsAg antibody level entry with HBV (setting [11]) was “significantly higher levels of anti-HBsAg antibody”.
Consider `CCCN(C)C(=O)n1c(=O)n(Cc2ccc(C)cc2)c2nc([S@](=N)(=O)CC)nc(N)c21` [Example 43-A, 6-Amino-2-[S(R)-ethylsulfonimidoyl]-N-methyl-8-oxo-N-propyl-9-(p-tolylmethyl)purine-7-carboxamide], for which the solubility thermodynamic in the data set “LYSA solubility study” was determined as 203 µg/mL (≈ 456 µM). The AUC(0-t) in data set [1] (setting [2]) was 0.124 µM·h; in data set [1] (setting [5]), 2.07 µM·h. In addition, the Cmax in data set [1] (setting [3]) came to 191 nM; in data set [1] (setting [6]), 4110 nM. The Tmax in data set [1] (setting [4]) was determined as 0.22 h; in data set [1] (setting [7]) it was 0.28 h. Further, in the data set with HBV (AAV-HBV mice, 10 mg/kg PO QOD), the “levels … of the 42-day treatment” value was “undetectable and below the lower limit of quantification (LLOQ)”. Further, the “reduction in HBV DNA” value in the data set with HBV (setting [12]) was above 3 log; in the data set on HBV (setting [8]), above 2 log. Further, the “reduction in HBsAg” value in the data set on HBV (setting [12]) and with HBV (setting [8]) was above 2.8 log each time. For the same molecule, in the data set with HBV (AAV-HBV mice, 10 mg/kg PO, regardless of QOD and QW, 42 days), the anti-HBsAg antibody level entry was “induced a considerable level of anti-HBsAg antibody”.
